Here are results for eight molecules from patent US6110962A, “11-aryl-benzo[B]naphtho[2,3-D]furans and 11-aryl-benzo[B]naphtho[2,3-D]thiophenes useful in the treatment of insulin resistance and hyperglycemia” (American Home Products Corporation, priority 1999, dated 2000).

The target in one experiment is T1, Human recombinant PTP1B (Homo sapiens, UniProt P18031).
T1 construct: made in house
T1 sequence (P18031 1-435): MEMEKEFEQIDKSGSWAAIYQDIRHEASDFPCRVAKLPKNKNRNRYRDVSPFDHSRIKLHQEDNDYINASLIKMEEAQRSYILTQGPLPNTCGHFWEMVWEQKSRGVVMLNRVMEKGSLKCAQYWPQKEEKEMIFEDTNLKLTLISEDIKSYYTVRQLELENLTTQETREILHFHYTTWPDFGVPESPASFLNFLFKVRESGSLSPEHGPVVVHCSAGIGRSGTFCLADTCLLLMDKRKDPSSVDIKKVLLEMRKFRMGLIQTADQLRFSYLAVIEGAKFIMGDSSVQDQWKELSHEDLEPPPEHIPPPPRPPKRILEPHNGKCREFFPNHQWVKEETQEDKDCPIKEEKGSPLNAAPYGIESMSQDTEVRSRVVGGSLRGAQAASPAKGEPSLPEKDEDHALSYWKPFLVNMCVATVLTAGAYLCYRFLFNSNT
The class given is biochemical. The settings on record: read-out: IC50.

Experiment [1] concerns rat hepatic microsomal PTPases. The settings on record: PTPase activity, compound at 50 μM.
The subject of another experiment is diabetic (ob/ob) mice. As to the kind of experiment: Blood glucose lowering activity in diabetic (ob/ob) mice. In kind it is in vivo, mouse. To be noted: ob/ob mice; for change in vivo at 25 mg/kg / change in vivo at 100 mg/kg: Mus musculus, po. As to the method: The blood glucose lowering activity of representative compounds of this invention were determined in an in vivo standard procedure using diabetic (ob/ob) mice. The procedures used and results obtained are briefly described below. The non-insulin dependent diabetic (NIDDM) syndrome can be typically characterizes by obesity, hyperglycemia, abnormal insulin secretion, hyperinsulinemia and insulin resistance. […] In each test procedure, mice [Male or female ob/ob (C57 B1/6J) and their lean litermates (ob+ or +/+, Jackson Laboratories) ages 2 to 5 months (10 to 65 g)] of a similar age were randomized according to body weight into 4 groups of 10 mice. The mice were housed 5 per cage and are maintained on normal rodent chow with water ad libitum. Mice received test compound daily by gavage (suspended in 0.5 ml of 0.5% methyl cellulose); dissolved in the drinking water; or admixed in the diet. […] The dose is calculated based on the fed weekly body weight and is expressed as active moiety. […] Control mice received vehicle only. On the morning of Day 4, 7 or 14 two drops of blood (approximetly 50 ul) were collected into sodium fluoride containing tubes either from the tail vein or after decapitation. For those studies in which the compound was administered daily by gavage the blood samples were collected two hours after compound administration. The plasma was isolated by centrifugation and the concentration of glucose is measured enzymatically on an Abbott V. P. Analyzer. […] Analysis of variance followed by Dunett's Comparison Test (one-tailed) are used to estimate the significant difference between the plasma glucose values from the control group and the individual compound treated groups (CMS SAS Release 5.18).

Where [2] appears, read: 96 h, dose 25 mg/Kg, plasma glucose Day 4, 7 or 14, read-out: % Change Glucose from Vehicle.
The mark [3] stands for this setting: dose 25 mg/Kg, read-out: % Change Insulin from Vehicle.
The mark [4] stands for this setting: 96 h, plasma glucose Day 4, 7 or 14, read-out: % Change Glucose from Vehicle.
Where [5] appears, read: read-out: % Change Insulin from Vehicle.

Where a name gives a salt, the structure may show the parent alone. Read-outs that look alike come from different tables or passages of the source.

For orientation: IC50 means the concentration needed to halve the response being measured.

On to `O=C(O)[C@@H](Cc1ccccc1)Oc1c(Br)cc(-c2c3ccccc3c(Cl)c3sc4ccccc4c23)cc1Br` [Example 127, (R)-2-{2,6-Dibromo-4-(6-chloro-benzo[b]naphtho[2,3-d]thiophen-11-yl)-phenoxy}-3-phenyl-propionic acid], for which the IC50 on Human recombinant PTP1B stood at 64 nM. Besides, in experiment [1], the “% Change from Control” value was -37.08%. Further, the change in vivo at 25 mg/kg with diabetic (ob/ob) mice (setting [2]) was -18.8%; in the experiment with diabetic (ob/ob) mice (setting [3]) it was -76.5%.

For the molecule `O=C(O)[C@@H](Cc1ccccc1)Oc1c(Br)cc(-c2c3ccccc3c(Sc3ccccc3)c3sc4ccccc4c23)cc1Br` [Example 128, (R)-2-[2,6-Dibromo-4-(6-phenylsulfanyl-benzo[b]naphtho[2,3-d]thiophen-11-yl)-phenoxy]-3-phenyl-propionic acid], on Human recombinant PTP1B, the IC50 turned out to be 25 nM. Also, in experiment [1], the “% Change from Control” value is -50.94%. For the same molecule, the change in vivo at 25 mg/kg in the experiment with diabetic (ob/ob) mice (setting [2]) was 3.1%; in the experiment with diabetic (ob/ob) mice (setting [3]) it was -38.8%.

In the case of `O=C(O)[C@@H](Cc1ccccc1)Oc1c(Br)cc(-c2c3ccccc3c(Br)c3sc4ccccc4c23)cc1Br` [Example 109, (R)-2-[2,6-Dibromo-4-(6-bromo-benzo[b]naphtho[2,3-d]thiophen-11-yl)-phenoxy]-3-phenyl-propionic acid, sodium salt], the IC50 on Human recombinant PTP1B came to 71 nM. Besides, in experiment [1] (sodium salt, 50 µM), the “% Change from Control” value was -66.67%. The “% Change Glucose from Vehicle” value with diabetic (ob/ob) mice (dose 25 mg/Kg, plasma glucose Day 4, 7 or 14, sodium salt, 25 mg/kg) is -26.31%. In addition, in the experiment on diabetic (ob/ob) mice (dose 25 mg/Kg, sodium salt), the “% Change Insulin from Vehicle” value is listed as -71.64%.

Regarding `O=C(O)[C@@H](Cc1ccccc1)Oc1c(F)ccc(-c2c3ccccc3c(Br)c3sc4ccccc4c23)c1F` [Example 203, (R)-2-[]3-(6-Bromo-benzo[b]naphtho[2,3-d]thiophen11-yl)-2.6-difluoro-phenoxyl-3-phenyl-propionic acid], the IC50 at Human recombinant PTP1B stood at 402 nM. Further, in experiment [1], the “% Change from Control” value is recorded as -86.47%. In addition, the change in vivo at 100 mg/kg in the experiment on diabetic (ob/ob) mice (setting [4]) was -16.1%; with diabetic (ob/ob) mice (setting [5]) it was -91%.

Regarding `O=C(O)COc1c(Br)cc(-c2c3ccccc3c(Br)c3oc4ccccc4c23)cc1Br` [Example 215, [2,6-Dibromo-4-(6-bromo-benzo[b]naphtho[2,3-d]furan-11-yl)-phenoxy]-acetic acid], the IC50 at Human recombinant PTP1B was 490 nM. Besides, the “% Change from Control” value in experiment [1] is -80.93%. Moreover, the change in vivo at 100 mg/kg in the experiment with diabetic (ob/ob) mice (setting [4]) was -39.4%; with diabetic (ob/ob) mice (setting [5]), -4.66%.

For `COc1c2ccccc2c(-c2cc(Br)c(O[C@H](Cc3ccccc3)C(=O)O)c(Br)c2)c2c1sc1ccccc12` [Example 126, (R)-2-[2,6-Dibromo-4-(6-methoxy-benzo[b]naphtho[2,3-d]thiophen-11-yl)-phenoxy]-3-phenyl-propionic acid], the IC50 on Human recombinant PTP1B stood at 298 nM. Besides, in experiment [1], the “% Change from Control” value is on record as -78.77%. Besides, the change in vivo at 25 mg/kg with diabetic (ob/ob) mice (setting [2]) was -28.6%; in the experiment on diabetic (ob/ob) mice (setting [3]), -62.4%.

Turning to `C[C@@H](Oc1c(Br)cc(-c2c3ccccc3c(I)c3sc4ccccc4c23)cc1Br)C(=O)O` [Example 135, (R)-2-[2,6-Dibromo-4-(6-iodo-benzo[b]naphtho[2,3-d]thiophen-11-yl]-phenoxy]-propionic acid], the IC50 at Human recombinant PTP1B came to 209 nM. The “% Change from Control” value in experiment [1] is -59.75%. The results for the change in vivo at 25 mg/kg in the experiment with diabetic (ob/ob) mice (setting [2]) and in the experiment with diabetic (ob/ob) mice (setting [3]) were -15.8% and -57.4%, respectively.

With `CC(C)c1cc(-c2c3ccccc3c(Br)c3sc4ccccc4c23)cc(C(C)C)c1O[C@H](Cc1ccccc1)C(=O)O` [Example 139, (2R)-2-[4-(6-Bromo-benzo[b]naphtho[2,3-d]thiophen-11-yl)-2,6-diisopropyl-phenoxy)-3-phenyl-propionic acid], the IC50 at Human recombinant PTP1B was 61 nM. The “% Change from Control” value in experiment [1] was -64.89%. The figures for the change in vivo at 25 mg/kg in the experiment on diabetic (ob/ob) mice (setting [2]) and in the experiment on diabetic (ob/ob) mice (setting [3]) were -18.5% and -22%, respectively.
